Reference: patent US11969423B2, “Compounds” (GLAXOSMITHKLINE INTELLECTUAL PROPERTY DEVELOPMENT LIMITED, priority 2017, dated 2024)

The molecules below were run on M. tuberculosis W4-E1-GFP (Mutant). Settings: read-out: EC50_Mutant.
Assay type: cell-based, Mycobacterium tuberculosis
`O=C(CCC(F)(F)F)N1CCC(c2cnccn2)CC1` [Example 1, 4,4,4-trifluoro-1-(4-pyrazin-2-yl-1-piperidyl)butan-1-one] gave an EC50 of 1 to 10 µM.
`O=C(CCC(F)(F)F)N1CCC(F)(c2cccnc2)CC1` [Example 2, 4,4,4-trifluoro-1-[4-fluoro-4-(3-pyridyl)-1-piperidyl]butan-1-one] showed an EC50 of 0.5 to 1 µM.
For `O=C(CCC(F)(F)F)N1CCC(c2cncc(F)c2)CC1` [Example 3, 4,4,4-trifluoro-1-[4-(5-fluoro-3-pyridyl)-1-piperidyl]butan-1-one], the EC50 was 1 to 10 µM.
`O=C(CCC(F)(F)F)N1CCC(c2ccc(F)nc2)CC1` [Example 4, 4,4,4-trifluoro-1-[4-(6-fluoro-3-pyridyl)-1-piperidyl]butan-1-one] was tested, and the EC50 was 1 to 10 µM.
In the case of `O=C(CCC(F)(F)F)N1CCC(c2ccc(C(F)(F)F)nc2)CC1` [Example 5, 4,4,4-trifluoro-1-[4-[6-(trifluoromethyl)-3-pyridyl]-1-piperidyl]butan-1-one], the EC50 is reported as 1 to 10 µM.
For `O=C(CCC(F)(F)F)N1CCC(c2cc(C(F)(F)F)ccn2)CC1` [Example 6, 4,4,4-trifluoro-1-[4-[4-(trifluoromethyl)-2-pyridyl]-1-piperidyl]butan-1-one], the EC50 was 0.05 to 0.25 µM.
`O=C(CCC(F)(F)F)N1CCC(c2cncc(C(F)(F)F)c2)CC1` [Example 7, 4,4,4-trifluoro-1-[4-[5-(trifluoromethyl)-3-pyridyl]-1-piperidyl]butan-1-one] gave an EC50 of 0.05 to 0.25 µM.
`O=C(CCC(F)(F)F)N1CCC(c2cccc(C(F)(F)F)n2)CC1` [Example 8, 4,4,4-trifluoro-1-[4-[6-(trifluoromethyl)-2-pyridyl]-1-piperidyl]butan-1-one] gave an EC50 of 1 to 10 µM.
`O=C(CCC(F)(F)F)N1CCC(c2cccc(F)n2)CC1` [Example 9, 4,4,4-trifluoro-1-[4-(6-fluoro-2-pyridyl)-1-piperidyl]butan-1-one] was tested, and the EC50 was 0.25 to 0.5 µM.
`COc1ccc(C2CCN(C(=O)CCC(F)(F)F)CC2)cn1` [Example 10, 4,4,4-trifluoro-1-[4-(6-methoxy-3-pyridyl)-1-piperidyl]butan-1-one] was tested, and the EC50 was 0.05 to 0.25 µM.
For `O=C(CCC(F)(F)F)N1CCC(c2cccnc2C(F)(F)F)CC1` [Example 11, 4,4,4-trifluoro-1-[4-[2-(trifluoromethyl)-3-pyridyl]-1-piperidyl]butan-1-one], the EC50 was 1 to 10 µM.
`COc1cncc(C2CCN(C(=O)CCC(F)(F)F)CC2)c1` [Example 12, 4,4,4-trifluoro-1-[4-(5-methoxy-3-pyridyl)-1-piperidyl]butan-1-one] showed an EC50 of 0.5 to 1 µM.
With `O=C(CCC(F)(F)F)N1CCC(c2ccc(F)nc2F)CC1` [Example 14, 1-[4-(2,6-difluoro-3-pyridyl)-1-piperidyl]-4,4,4-trifluoro-butan-1-one] the EC50 was 0.05 to 0.25 µM.
For `O=C(CCC(F)(F)F)N1CCC(c2nccc(C(F)(F)F)n2)CC1` [Example 15], the EC50 was 1 to 10 µM.
With `O=C(CCC(F)(F)F)N1CCC(c2cncnc2)CC1` [Example 16] the EC50 was 1 to 10 µM.
Molecule `O=C(CCC(F)(F)F)N1CCC(c2ccc(F)cn2)CC1` [Example 17, 4,4,4-trifluoro-1-[4-(5-fluoro-2-pyridyl)-1-piperidyl]butan-1-one] has an EC50 of 1 to 10 µM.
For `O=C(CCC(F)(F)F)N1CCC(c2ccnc(C(F)(F)F)c2)CC1` [Example 18, 4,4,4-trifluoro-1-(4-(2-(trifluoromethyl)pyridin-4-yl)piperidin-1-yl)butan-1-one], the EC50 was < 0.05 µM.
`O=C(CCC(F)(F)F)N1CCC(c2ccnc(F)c2)CC1` [Example 20, 4,4,4-trifluoro-1-(4-(2-fluoropyridin-4-yl)piperidin-1-yl)butan-1-one] was tested, and the EC50 was 0.05 to 0.25 µM.
With `O=C(CCC(F)(F)F)N1CCC(c2cnc(C(F)(F)F)cn2)CC1` [Example 21, 4,4,4-trifluoro-1-(4-(5-(trifluoromethyl)pyrazin-2-yl)piperidin-1-yl)butan-1-one] the EC50 was 1 to 10 µM.
With `Cc1cc(C2CCN(C(=O)CCC(F)(F)F)CC2)ccn1` [Example 22, 4,4,4-trifluoro-1-(4-(2-methylpyridin-4-yl)piperidin-1-yl)butan-1-one] the EC50 was 0.05 to 0.25 µM.
Work on `O=C(CCC(F)(F)F)N1CCC(c2cnc(F)c(F)c2)CC1` [Example 23, 1-(4-(5,6-difluoropyridin-3-yl)piperidin-1-yl)-4,4,4-trifluorobutan-1-one] yielded an EC50 of 0.05 to 0.25 µM.
For `O=C(CCC(F)(F)F)N1CCC(c2cncc(C(F)(F)F)n2)CC1` [Example 24, 4,4,4-trifluoro-1-(4-(6-(trifluoromethyl)pyrazin-2-yl)piperidin-1-yl)butan-1-one], the EC50 was 0.5 to 1 µM.
Work on `O=C(CCC(F)(F)F)N1CCC(c2ccnc(Cl)c2)CC1` [Example 25, 1-(4-(2-chloropyridin-4-yl)piperidin-1-yl)-4,4,4-trifluorobutan-1-one] yielded an EC50 of 0.05 to 0.25 µM.
Molecule `O=C(CCC(F)(F)F)N1CCC(c2ccncc2F)CC1` [Example 26, 4,4,4-trifluoro-1-(4-(3-fluoropyridin-4-yl)piperidin-1-yl)butan-1-one] has an EC50 of 0.5 to 1 µM.
For `O=C(CCC(F)(F)F)N1CCC(c2cccc(Cl)n2)CC1` [Example 27, 1-(4-(6-chloropyridin-2-yl)piperidin-1-yl)-4,4,4-trifluorobutan-1-one], the EC50 was 0.05 to 0.25 µM.
With `O=C(CCC(F)(F)F)N1CCC(c2ncccn2)CC1` [Example 28, 4,4,4-trifluoro-1-[4-(pyrimidin-2-yl)piperidin-1-yl]butan-1-one] the EC50 was 1 to 10 µM.
With `O=C(CCC(F)(F)F)N1CCC(F)(c2cncc(Cl)c2)CC1` [Example 29, 1-(4-(5-chloropyridin-3-yl)-4-fluoropiperidin-1-yl)-4,4,4-trifluorobutan-1-one] the EC50 was < 0.05 µM.
`O=C(CCC(F)(F)F)N1CCC(c2cncc(Cl)c2)CC1` [Example 30, 1-(4-(5-chloropyridin-3-yl)piperidin-1-yl)-4,4,4-trifluorobutan-1-one] was tested, and the EC50 was 0.05 to 0.25 µM.
With `O=C(CCCC(F)(F)F)N1CCC(c2cncc(Cl)c2)CC1` [Example 31, 1-(4-(5-chloropyridin-3-yl)piperidin-1-yl)-5,5,5-trifluoropentan-1-one] the EC50 was 0.25 to 0.5 µM.
For `O=C(CCC(F)(F)F)N1CCC(c2cncc(Cl)n2)CC1` [Example 32, 1-(4-(6-chloropyrazin-2-yl)piperidin-1-yl)-4,4,4-trifluorobutan-1-one], the EC50 was 0.05 to 0.25 µM.
`O=C(CCC(F)(F)F)N1CCC(F)(c2ccccn2)CC1` [Example 33, 4,4,4-trifluoro-1-(4-fluoro-4-(pyridin-2-yl)piperidin-1-yl)butan-1-one] showed an EC50 of 0.05 to 0.25 µM.
With `O=C(CCC(F)(F)F)N1CCC(F)(c2cncc(C(F)(F)F)c2)CC1` [Example 34, 4,4,4-trifluoro-1-(4-fluoro-4-(5-(trifluoromethyl)pyridin-3-yl)piperidin-1-yl)butan-1-one] the EC50 was < 0.05 µM.
In the case of `O=C(CCC(F)(F)F)N1CCC(F)(c2ccnc(C(F)(F)F)c2)CC1` [Example 35, 4,4,4-trifluoro-1-(4-fluoro-4-(2-(trifluoromethyl)pyridin-4-yl)piperidin-1-yl)butan-1-one], the EC50 is reported as < 0.05 µM.
With `O=C(CCC(F)(F)F)N1CCC(F)(c2cncc(Cl)n2)CC1` [Example 36, 1-(4-(6-chloropyrazin-2-yl)-4-fluoropiperidin-1-yl)-4,4,4-trifluorobutan-1-one] the EC50 was 0.25 to 0.5 µM.
With `O=C(CCC(F)(F)F)N1CCC(F)(c2ccnc(F)c2)CC1` [Example 37, 4,4,4-trifluoro-1-(4-fluoro-4-(2-fluoropyridin-4-yl)piperidin-1-yl)butan-1-one] the EC50 was < 0.05 µM.
In the case of `O=C(CCC(F)(F)F)N1CCC(c2cncc(Cl)c2)C1` (stereo not drawn) [Example 38, 1-(3-(5-chloropyridin-3-yl)pyrrolidin-1-yl)-4,4,4-trifluorobutan-1-one], the EC50 is reported as < 0.05 µM.
`O=C(CCC(F)(F)F)N1CCC(F)(c2cc(C(F)(F)F)ccn2)CC1` [Example 39, 4,4,4-trifluoro-1-[4-fluoro-4-[4-(trifluoromethyl)-2-pyridyl]-1-piperidyl]butan-1-one] showed an EC50 of 0.05 to 0.25 µM.
`O=C(CCC(F)(F)F)N1CCC(F)(c2ccc(F)nc2)CC1` [Example 40] gave an EC50 of 0.05 to 0.25 µM.
For `O=C(CCC(F)(F)F)N1CCC(F)(c2ccnc(Cl)c2)CC1` [Example 41], the EC50 was < 0.05 µM.
